Test results published in patent publication US9023821B2, “Use of MicroRNA for treating diseases associated with a dysfunction of the cilia in multiciliated epithelial cells” (Centre National de la Recherche Scientifique, priority 2009, dated 2015).

Experiments:
[1] = test system: human airway epithelial cells (HAECs); experiment: High-throughput sequencing (HTS) of miRNAs at four stages of differentiation of HAECs; details: for Modulation (ratio of the level of intensity of expression in log2 in two stages of differentiation) measured by high-throughput sequencing, D7 − D0 / Modulation (ratio of the level of intensity of expression in log2 in two stages of differentiation) measured by high-throughput sequencing, FC − D7 / Modulation (ratio of the level of intensity of expression in log2 in two stages of differentiation) measured by high-throughput sequencing, WD − D0 / Modulation (ratio of the level of intensity of expression in log2 in two stages of differentiation) measured by high-throughput sequencing, WD − FC / Level of intensity of expression in log2 measured by high-throughput sequencing, D0 / Level of intensity of expression in log2 measured by high-throughput sequencing, D7 / Level of intensity of expression in log2 measured by high-throughput sequencing, FC / Level of intensity of expression in log2 measured by high-throughput sequencing, WD: Table VI; for Level of intensity of expression in log2 At the differentiated stage (WD) measured in HTS: healthy human airway epithelial tissue; for Level of intensity of expression in log2 measured by high-throughput sequencing, D0: stage D0; for Level of intensity of expression in log2 measured by high-throughput sequencing, D7: stage D7; for Level of intensity of expression in log2 measured by high-throughput sequencing, FC: stage FC; for Level of intensity of expression in log2 At the differentiated stage (WD) measured in HTS / Level of intensity of expression in log2 measured by high-throughput sequencing, WD: stage WD; for Modulation (ratio of the level of intensity of expression in log2 in two stages of differentiation), D7 − D0 / Modulation (ratio of the level of intensity of expression in log2 in two stages of differentiation), FC − D7 / Modulation (ratio of the level of intensity of expression in log2 in two stages of differentiation), WD − FC / Abundance (%), D0 / Abundance (%), D7 / Abundance (%), FC / Abundance (%), WD: HTS; for Abundance (%), D0: ALI-D0; for Abundance (%), D7: ALI-D7; for Abundance (%), FC: ALI-FC; for Abundance (%), WD: ALI-WD
Text: The total RNAs were extracted from HAECs cultivated at the air-liquid interface at four stages of differentiation: ALI-D0 (0 day), ALI-D7 (7 days), ALI-FC (during appearance of the first cilia at about 14 days) and ALI-WD (wholly differentiated at about 21 days). The cells are lysed in reagent with Trizol® (Invitrogen). The total RNAs containing small RNAs and microRNAs are purified on Qiagen RNEasy columns (Qiagen) according to the supplier's instructions.
The total RNAs containing small RNAs and microRNAs are isolated as before. The procedure is based on the Applied Biosystems Ligase-Enhanced Genome Detection technology (LEGenD™); the SOLiD™ Small RNA Expression kit (Applied Biosystems, France) was used. With this method it is possible to convert the small RNAs of a sample into a library of double-stranded DNA; it was developed by Applied Biosystems SOLiD™ System for a new generation of high-throughput sequencing.
The high-throughput sequencing of the microRNAs was carried out according to the supplier's recommendations. Briefly, the total RNAs containing the small RNAs are hybridized (65° C., 10 min, then at 16° C., 5 min) and ligated (16° C., 2-16 h in a thermocycler) with the Adaptor Mix A for producing a matrix for sequencing the 5′ end of the small RNAs, or with the Adaptor Mix B for sequencing the 3′ end. The samples are then reverse-transcribed (42° C., 30 min) to synthesize the complementary DNA (cDNA). The library of small RNAs is amplified by PCR and after migration on polyacrylamide gel the amplified small RNAs are cut out and extracted from the gel according to their size (length of about 105-150 bases, according to the supplier's instructions), eluted and resuspended in nuclease-free water. The concentration of nucleic acids is then measured and normalized before proceeding with preparation of the samples for sequencing.
For each microRNA sequenced, the number of sequences of the 5p strand and of the 3p strand of the microRNA was normalized to 10^6 sequences and converted to percentage abundance of expression for each of the microRNAs. The data were then normalized according to a linear model and an empirical Bayesian method using software R. For subsequent analyses, only the microRNAs were retained for which the percentage expression (or abundance) is greater than 1% of the total of the microRNAs in at least one culture condition, with a |Log2 Ratio| below 0.5 and an adjusted P-value below 0.05.

[2] = test system: human airway epithelial cells (HAECs); experiment: Agilent miRNA chips, miRNA expression at four stages of differentiation of HAECs; details: for Modulation (ratio of the level of intensity of expression in log2 in two stages of differentiation) measured with the Agilent chips, D7 − D0 / Modulation (ratio of the level of intensity of expression in log2 in two stages of differentiation) measured with the Agilent chips, FC − D7 / Modulation (ratio of the level of intensity of expression in log2 in two stages of differentiation) measured with the Agilent chips, WD − D0 / Modulation (ratio of the level of intensity of expression in log2 in two stages of differentiation) measured with the Agilent chips, WD − FC / Level of intensity of expression in log2 measured with the Agilent chips, D0 / Level of intensity of expression in log2 measured with the Agilent chips, D7 / Level of intensity of expression in log2 measured with the Agilent chips, FC / Level of intensity of expression in log2 measured with the Agilent chips, WD: Table VI; for Modulation (ratio of the level of intensity of expression in log2 at two stages of differentiation), FC − D7 / Modulation (ratio of the level of intensity of expression in log2 at two stages of differentiation), WD − FC: Agilent miRNA chips, Table V; for Level of intensity of expression in log2 measured with the Agilent chips, D0: stage D0; for Level of intensity of expression in log2 measured with the Agilent chips, D7: stage D7; for Level of intensity of expression in log2 measured with the Agilent chips, FC: stage FC; for Level of intensity of expression in log2 measured with the Agilent chips, WD: stage WD
Text: In parallel with the high-throughput sequencing of the microRNAs, the repertoire of expression of the microRNAs (microRNAome) is investigated using the technology of Agilent® microRNA chips. For this, RNA samples from the same patients as before were used, labeled and hybridized on Agilent® miRNA chips (Human miRNA Microarray v2, containing 866 human miRNAs and 89 human viral miRNAs, i.e. all the human miRNAs contained and referenced in Sanger miRBase v.12.0, Agilent Technologies, France) using the “miRNA labeling and hybridization” kit, following the supplier's instructions (Agilent Technologies).
The inventors then used the Agilent miRNA chips to investigate the repertoire of expression of the miRNAs of the human airway epithelium and compare the results obtained in high-throughput sequencing with those obtained with Agilent® commercial miRNA chips.

[3] = test system: basal cells and pyramidal cells of the airway epithelium; experiment: miRNA expression in sorted basal cells versus pyramidal cells (ciliated + secretory), HTS and Agilent chips; design: species or system human; details: for Modulation of expression of the miRNAs in pyramidal cells (323(−)) relative to basal cells 323(+): HTS and Agilent chips; for Intensity of the level of expression in log2 in pyramidal cells (323(−)): pyramidal cells (ciliated + secretory)
Description: After dissociation of the stroma of nasal polyps, the epithelial cells (about 20.10^6) are incubated in PBS-BSA-EDTA for 30 min and then incubated with labeled antibody CD151-PE and anti-TF (tissue factor)-FITC for 20 min, 4° C. (see Hajj, R. et al., Stem Cells 25, 139-148 (2007)). After washing twice, the cells are taken up in PBS-EDTA and incubated with DAPI for labeling the cells whose integrity has been altered.
Cell sorting was carried out on the FACSAria sorter (BD Biosciences) equipped with 3 lasers, blue, red and violet. Dead cells, aggregates and double cells were excluded. The doubly positive population of basal cells (CD151+/FT+) and the negative population of cylindrical cells (containing ciliated cells and mucus-secreting cells) (CD151−/FT−) were selected and sorted at a rate of 5000 events/s ([…]). The purity and identity of the sorted cells were then verified by cytometry and immunocytochemistry.
Like the native airway epithelium, the model of differentiation in vitro used in these tests consists of basal cells, ciliated cells and mucus-secreting cells. In order to identify the repertoires of the miRNAs specific to each of the cellular types, the inventors used cell sorting by flow cytometry by means of specific markers (Hajj, R. et al. 2007). Using this technique, adult airway progenitor cells (corresponding a priori to basal cells) were isolated, selected and sorted (such cells appear doubly positive for tetraspanin CD151 and for the tissue factor) from the pyramidal cells (i.e. ciliated cells and mucus-secreting cells) which appear negative for these same markers. These were purified from polyps or from nasal conchae obtained from 3 separate donors.
After extracting the total RNAs, the expression profiles of the miRNAs were established by means of Agilent® commercial chips or by high-throughput sequencing (HTS). […] For the first time, the inventors thus attribute a repertoire of expression of the miRNAs specifically to separate cellular types of the airway epithelium during differentiation.

Row | Substance | Modulation (ratio of the level of intensity of expression in log2 in two stages of differentiation) measured by high-throughput sequencing, D7 − D0 [1] [log2] | Modulation (ratio of the level of intensity of expression in log2 in two stages of differentiation) measured by high-throughput sequencing, FC − D7 [1] [log2] | Modulation (ratio of the level of intensity of expression in log2 in two stages of differentiation) measured by high-throughput sequencing, WD − D0 [1] [log2] | Modulation (ratio of the level of intensity of expression in log2 in two stages of differentiation) measured by high-throughput sequencing, WD − FC [1] [log2] | Level of intensity of expression in log2 At the differentiated stage (WD) measured in HTS [1] [log2] | Level of intensity of expression in log2 measured by high-throughput sequencing, D0 [1] [log2] | Level of intensity of expression in log2 measured by high-throughput sequencing, D7 [1] [log2] | Level of intensity of expression in log2 measured by high-throughput sequencing, FC [1] [log2] | Level of intensity of expression in log2 measured by high-throughput sequencing, WD [1] [log2] | Modulation (ratio of the level of intensity of expression in log2 in two stages of differentiation) measured with the Agilent chips, D7 − D0 [2] [log2] | Modulation (ratio of the level of intensity of expression in log2 in two stages of differentiation) measured with the Agilent chips, FC − D7 [2] [log2] | Modulation (ratio of the level of intensity of expression in log2 in two stages of differentiation) measured with the Agilent chips, WD − D0 [2] [log2] | Modulation (ratio of the level of intensity of expression in log2 in two stages of differentiation) measured with the Agilent chips, WD − FC [2] [log2] | Level of intensity of expression in log2 measured with the Agilent chips, D0 [2] [log2] | Level of intensity of expression in log2 measured with the Agilent chips, D7 [2] [log2] | Level of intensity of expression in log2 measured with the Agilent chips, FC [2] [log2] | Level of intensity of expression in log2 measured with the Agilent chips, WD [2] [log2] | Modulation of expression of the miRNAs in pyramidal cells (323(−)) relative to basal cells 323(+) [3] | Intensity of the level of expression in log2 in basal cells (323(+)) [3] [log2] | Intensity of the level of expression in log2 in pyramidal cells (323(−)) [3] [log2] | also measured
1 | hsa-miR-25: human miRNA, SEQ ID No. 27 (CAUUGCACUUGUCUCGGUCUGA; expressed or natural sequence; listed as Homo sapiens) | 0.66 | −0.03 | 0.24 | −0.39 | 3.52 | 9.11 | 9.77 | 9.74 | 9.35 | 1.35 | −0.65 | 0.66 | −0.05 | 7.15 | 8.50 | 7.85 | 7.80 | −0.70 | 5.40 | 4.70 | Modulation (ratio of the level of intensity of expression in log2 at two stages of differentiation), FC − D7 [2]: −0.65 log2; Modulation (ratio of the level of intensity of expression in log2 at two stages of differentiation), WD − FC [2]: −0.05 log2
2 | hsa-miR-23b: human miRNA, SEQ ID No. 26 (AUCACAUUGCCAGGGAUUACC; expressed or natural sequence; listed as Homo sapiens) | 1.30 | −0.17 | 1.29 | 0.16 | 9.35 | 14.06 | 15.35 | 15.18 | 15.35 | 1.96 | −0.27 | 1.72 | 0.04 | 8.92 | 10.88 | 10.61 | 10.64 | −2.23 | 9.41 | 7.18 | Modulation (ratio of the level of intensity of expression in log2 in two stages of differentiation), D7 − D0 [1]: 1.30 log2; Modulation (ratio of the level of intensity of expression in log2 in two stages of differentiation), FC − D7 [1]: −0.17 log2; Modulation (ratio of the level of intensity of expression in log2 in two stages of differentiation), WD − FC [1]: 0.16 log2; Abundance (%), D0 [1]: 3.73%; Abundance (%), D7 [1]: 9.19%; Abundance (%), FC [1]: 7.92%; Abundance (%), WD [1]: 6.72%; Modulation (ratio of the level of intensity of expression in log2 at two stages of differentiation), FC − D7 [2]: −0.27 log2; Modulation (ratio of the level of intensity of expression in log2 at two stages of differentiation), WD − FC [2]: 0.04 log2
3 | hsa-miR-17: human miRNA, SEQ ID No. 11 (CAAAGUGCUUACAGUGCAGGUAG; expressed or natural sequence; listed as Homo sapiens) | −0.17 | −0.87 | −1.24 | −0.20 | 11.61 | 12.85 | 12.68 | 11.81 | 11.61 | 0.31 | −1.14 | −1.22 | −0.39 | 9.03 | 9.34 | 8.19 | 7.81 | −2.60 | 6.64 | 4.04 | Modulation (ratio of the level of intensity of expression in log2 in two stages of differentiation), D7 − D0 [1]: −0.17 log2; Modulation (ratio of the level of intensity of expression in log2 in two stages of differentiation), FC − D7 [1]: −0.87 log2; Modulation (ratio of the level of intensity of expression in log2 in two stages of differentiation), WD − FC [1]: −0.20 log2; Abundance (%), D0 [1]: 1.61%; Abundance (%), D7 [1]: 1.44%; Abundance (%), FC [1]: 0.76%; Abundance (%), WD [1]: 0.50%
